# Experimental data as given in patent publication US20250163054A1, “SUBSTITUTED BICYCLIC HETEROARYL COMPOUNDS USEFUL AS INHIBITORS OF TLR9” (Bristol-Myers Squibb Company, priority 2022, published 2025).
# Tests used:
# Type in all cases: cell-based
# human TLR9 = target: T1, human TLR9 (Homo sapiens, UniProt Q9NR96); test: TLR7/8/9 Inhibition Reporter Assays (TLR9); conditions: HEK-Blue cells overexpressing human TLR9, SEAP reporter, stimulated with TLR9 ligand ODN2006
# T1 construct: host or cells: HEK-Blue cells (HEK293-derived reporter line)
# T1 sequence (Q9NR96 26-1032): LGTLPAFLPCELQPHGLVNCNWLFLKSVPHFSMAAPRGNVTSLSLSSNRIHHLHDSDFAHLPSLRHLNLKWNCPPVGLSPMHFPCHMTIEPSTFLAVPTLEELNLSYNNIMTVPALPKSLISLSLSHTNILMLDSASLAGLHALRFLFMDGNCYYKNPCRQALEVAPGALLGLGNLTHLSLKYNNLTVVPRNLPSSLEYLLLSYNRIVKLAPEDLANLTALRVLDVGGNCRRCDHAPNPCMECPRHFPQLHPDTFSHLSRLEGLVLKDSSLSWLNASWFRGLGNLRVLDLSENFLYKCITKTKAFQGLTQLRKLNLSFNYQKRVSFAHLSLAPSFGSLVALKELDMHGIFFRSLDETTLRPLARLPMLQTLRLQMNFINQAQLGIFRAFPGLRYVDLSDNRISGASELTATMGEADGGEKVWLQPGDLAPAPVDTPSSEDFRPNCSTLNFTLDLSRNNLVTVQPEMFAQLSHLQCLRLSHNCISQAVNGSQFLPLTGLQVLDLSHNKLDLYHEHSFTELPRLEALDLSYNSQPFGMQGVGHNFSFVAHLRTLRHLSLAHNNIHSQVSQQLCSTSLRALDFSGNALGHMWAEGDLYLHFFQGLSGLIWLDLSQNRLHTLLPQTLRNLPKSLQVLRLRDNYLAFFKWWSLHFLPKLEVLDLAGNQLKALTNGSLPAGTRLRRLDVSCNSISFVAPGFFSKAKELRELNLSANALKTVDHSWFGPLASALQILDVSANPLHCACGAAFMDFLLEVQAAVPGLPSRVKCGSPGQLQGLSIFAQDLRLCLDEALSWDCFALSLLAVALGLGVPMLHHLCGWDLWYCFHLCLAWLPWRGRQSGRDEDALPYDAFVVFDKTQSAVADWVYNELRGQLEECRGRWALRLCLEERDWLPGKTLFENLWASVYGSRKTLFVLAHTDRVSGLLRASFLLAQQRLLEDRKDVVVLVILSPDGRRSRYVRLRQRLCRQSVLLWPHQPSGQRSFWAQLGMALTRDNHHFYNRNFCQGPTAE
# How it was run: (§1)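 HEK-Blue cells overexpressing human TLR7, TLR8 or TLR9 with NF-κB/AP-1-driven SEAP reporter, pre-treated 60 min with compound ([…]). Stimulated with […] (TLR7), […] (TLR8) or ODN2006 200 nM (TLR9), then 22 h at 37° C; SEAP measured, % inhibition relative to agonist-plus-DMSO and known-inhibitor wells.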
# human TLR7 = target: T2, human TLR7 (Homo sapiens, UniProt Q9NYK1); test: TLR7/8/9 Inhibition Reporter Assays (TLR7); conditions: HEK-Blue cells overexpressing human TLR7, SEAP reporter, stimulated with TLR7 ligand gardiquimod
# T2 construct: host or cells: HEK-Blue cells (HEK293-derived reporter line)
# T2 sequence (Q9NYK1 27-1049): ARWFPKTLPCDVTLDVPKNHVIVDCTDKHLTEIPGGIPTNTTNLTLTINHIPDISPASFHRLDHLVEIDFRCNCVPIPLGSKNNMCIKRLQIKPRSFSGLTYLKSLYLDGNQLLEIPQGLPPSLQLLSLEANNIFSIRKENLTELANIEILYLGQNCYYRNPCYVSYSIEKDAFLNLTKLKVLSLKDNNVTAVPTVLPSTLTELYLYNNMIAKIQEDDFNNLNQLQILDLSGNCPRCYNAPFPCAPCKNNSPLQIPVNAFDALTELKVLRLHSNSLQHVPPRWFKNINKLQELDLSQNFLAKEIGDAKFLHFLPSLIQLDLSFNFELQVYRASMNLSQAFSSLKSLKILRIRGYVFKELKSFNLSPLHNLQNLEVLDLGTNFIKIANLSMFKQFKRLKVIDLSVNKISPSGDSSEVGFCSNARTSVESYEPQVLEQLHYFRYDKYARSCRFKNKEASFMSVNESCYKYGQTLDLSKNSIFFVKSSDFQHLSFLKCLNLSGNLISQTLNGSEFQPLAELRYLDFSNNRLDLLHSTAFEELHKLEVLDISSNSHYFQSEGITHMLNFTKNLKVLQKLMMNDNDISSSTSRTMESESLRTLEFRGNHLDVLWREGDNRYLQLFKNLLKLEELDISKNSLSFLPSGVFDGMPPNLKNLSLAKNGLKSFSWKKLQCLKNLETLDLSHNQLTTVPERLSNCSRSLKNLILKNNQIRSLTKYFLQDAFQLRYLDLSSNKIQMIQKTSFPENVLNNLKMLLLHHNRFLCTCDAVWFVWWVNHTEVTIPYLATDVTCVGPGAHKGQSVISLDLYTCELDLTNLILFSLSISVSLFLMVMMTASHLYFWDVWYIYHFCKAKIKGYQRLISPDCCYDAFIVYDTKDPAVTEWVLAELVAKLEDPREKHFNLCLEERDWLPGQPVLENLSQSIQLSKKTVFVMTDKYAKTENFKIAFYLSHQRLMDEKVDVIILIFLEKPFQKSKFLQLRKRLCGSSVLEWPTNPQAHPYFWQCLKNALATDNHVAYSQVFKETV
# How it was run: as §1
# human TLR8 = target: T3, human TLR8 (Homo sapiens, UniProt Q9NR97); test: TLR7/8/9 Inhibition Reporter Assays (TLR8); conditions: HEK-Blue cells overexpressing human TLR8, SEAP reporter, stimulated with TLR8 ligand R848
# T3 construct: host or cells: HEK-Blue cells (HEK293-derived reporter line)
# T3 sequence (Q9NR97 27-1041): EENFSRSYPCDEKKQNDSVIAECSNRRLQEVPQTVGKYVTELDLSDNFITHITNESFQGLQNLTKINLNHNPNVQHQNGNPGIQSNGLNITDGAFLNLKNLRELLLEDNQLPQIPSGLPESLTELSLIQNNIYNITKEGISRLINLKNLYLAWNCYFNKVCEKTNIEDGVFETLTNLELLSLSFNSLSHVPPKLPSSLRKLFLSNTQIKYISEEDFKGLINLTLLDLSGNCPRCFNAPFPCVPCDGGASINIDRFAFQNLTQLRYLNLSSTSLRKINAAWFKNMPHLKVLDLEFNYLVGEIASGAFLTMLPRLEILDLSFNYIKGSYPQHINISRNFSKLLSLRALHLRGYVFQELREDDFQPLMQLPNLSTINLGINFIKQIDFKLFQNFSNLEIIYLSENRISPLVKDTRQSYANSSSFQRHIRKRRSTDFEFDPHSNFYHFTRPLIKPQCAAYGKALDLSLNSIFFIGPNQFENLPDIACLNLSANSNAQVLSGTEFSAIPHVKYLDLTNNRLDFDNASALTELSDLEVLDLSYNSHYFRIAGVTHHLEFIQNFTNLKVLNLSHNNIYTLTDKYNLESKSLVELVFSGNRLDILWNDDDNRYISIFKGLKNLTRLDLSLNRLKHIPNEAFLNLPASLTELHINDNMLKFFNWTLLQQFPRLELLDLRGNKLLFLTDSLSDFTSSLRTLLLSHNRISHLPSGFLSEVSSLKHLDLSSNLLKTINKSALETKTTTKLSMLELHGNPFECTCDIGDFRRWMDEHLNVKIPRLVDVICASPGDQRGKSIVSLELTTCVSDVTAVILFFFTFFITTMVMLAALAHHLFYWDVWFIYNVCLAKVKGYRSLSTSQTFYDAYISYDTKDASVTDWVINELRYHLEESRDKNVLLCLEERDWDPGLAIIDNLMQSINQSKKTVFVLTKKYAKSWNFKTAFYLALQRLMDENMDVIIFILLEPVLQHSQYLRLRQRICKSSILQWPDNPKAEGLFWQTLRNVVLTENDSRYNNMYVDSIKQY
# How it was run: as §1
Compound,IC50 (human TLR9) [nM],IC50 (human TLR7) [nM],IC50 (human TLR8) [nM]
"Cc1nc(-c2ccc(N3CC4(CCN(CC(C)(C)O)CC4)C3)cc2)cc2c1nc(-c1ccc(S(C)(=O)=O)cc1)n2C [Example 100, 1-(2-(4-(1,4-dimethyl-2-(4-(methylsulfonyl)phenyl)-1H-imidazo[4,5-c]pyridin-6-yl)phenyl)-2,7-diazaspiro[3.5]nonan-7-yl)-2-methylpropan-2-ol]",650,3300,2200
"COc1ccc(-c2nc3c(C)nc(-c4ccc(N5CC6(C5)CN(C5COC5)C6)cc4)cc3n2C)cc1OC [Example 102, 2-(3,4-dimethoxyphenyl)-1,4-dimethyl-6-(4-(6-(oxetan-3-yl)-2,6-diazaspiro[3.3]heptan-2-yl)phenyl)-1H-imidazo[4,5-c]pyridine]",320,9100,> 50000
"COCCN1CC2(CCN(c3ccc(-c4cc5c(cn4)nc(-c4ccc(S(C)(=O)=O)cc4)n5C)cc3)CC2)C1 [Example 105, 6-(4-(2-(2-methoxyethyl)-2,7-diazaspiro[3.5]nonan-7-yl)phenyl)-1-methyl-2-(4-(methylsulfonyl)phenyl)-1H-imidazo[4,5-c]pyridine]",600,4500,2200
"Cc1nc(-c2ccc(N3CC4(C3)CN(C3COC3)C4)cc2)cc2c1nc(-c1ccc(S(C)(=O)=O)cc1)n2C [Example 107, 1,4-dimethyl-2-(4-(methylsulfonyl)phenyl)-6-(4-(6-(oxetan-3-yl)-2,6-diazaspiro[3.3]heptan-2-yl)phenyl)-1H-imidazo[4,5-c]pyridine]",980,30000,> 50000
"Cn1c(-c2ccc(S(C)(=O)=O)cc2)nc2cnc(-c3ccc(N4CCC5(CC4)CN(C4COC4)C5)cc3)cc21 [Example 108, 1-methyl-2-(4-(methylsulfonyl)phenyl)-6-(4-(2-(oxetan-3-yl)-2,7-diazaspiro[3.5]nonan-7-yl)phenyl)-1H-imidazo[4,5-c]pyridine]",740,29000,> 25000

# Compounds with a lower IC50 (human TLR9), results first:
IC50 (human TLR9) [nM],IC50 (human TLR7) [nM],IC50 (human TLR8) [nM],Compound
220,3100,900,"CC(C)CN1CC2(CCN(c3ccc(-c4cc5c(cn4)nc(-c4ccc(S(C)(=O)=O)cc4)n5C)cc3)C2)C1 [Example 99, 6-(4-(2-isobutyl-2,6-diazaspiro[3.4]octan-6-yl)phenyl)-1-methyl-2-(4-(methylsulfonyl)phenyl)-1H-imidazo[4,5-c]pyridine]"
85,1800,> 50000,"COCCN1CC2(C1)CN(c1ccc(-c3cc4c(nc(-c5ccc(OC)c(OC)c5)n4C)c(C)n3)cc1)C2 [Example 101, 2-(3,4-dimethoxyphenyl)-6-(4-(6-(2-methoxyethyl)-2,6-diazaspiro[3.3]heptan-2-yl)phenyl)-1,4-dimethyl-1H-imidazo[4,5-c]pyridine]"
140,1700,> 50000,"COCCN1CC2(CCN(c3ccc(-c4cc5c(nc(-c6ccc(OC)c(OC)c6)n5C)c(C)n4)cc3)CC2)C1 [Example 103, 2-(3,4-dimethoxyphenyl)-6-(4-(2-(2-methoxyethyl)-2,7-diazaspiro[3.5]nonan-7-yl)phenyl)-1,4-dimethyl-1H-imidazo[4,5-c]pyridine]"
210,7700,16000,"COCCN1CC2(C1)CN(c1ccc(-c3cc4c(nc(-c5ccc(S(C)(=O)=O)cc5)n4C)c(C)n3)cc1)C2 [Example 104, 6-(4-(6-(2-methoxyethyl)-2,6-diazaspiro[3.3]heptan-2-yl)phenyl)-1,4-dimethyl-2-(4-(methylsulfonyl)phenyl)-1H-imidazo[4,5-c]pyridine]"
230,4000,> 50000,"COc1ccc(-c2nc3c(C)nc(-c4ccc(N5CCC6(CC5)CN(C5COC5)C6)cc4)cc3n2C)cc1OC [Example 106, 2-(3,4-dimethoxyphenyl)-1,4-dimethyl-6-(4-(2-(oxetan-3-yl)-2,7-diazaspiro[3.5]nonan-7-yl)phenyl)-1H-imidazo[4,5-c]pyridine]"
